Data taken from patent US7981878B2, “Tumor treatment with gliotoxin derivatives” (priority 2005, dated 2011).

Tests used:
[1] = system: Notch2 (N2^IC); assay: Nuclear Notch2 activity in B-CLL cells by EMSA (band shift assay); format: cell-based, human; details: B-CLL cells, 0.2 μM gliotoxin, 24 h
Description: FIG. 3: Gliotoxin is a potent Notch2 trans-activation inhibitor in B-CLL cells. (A) EMSA showing the inhibition of DNA-bound Notch2IC complexes in the presence of 0.2 μg Gliotoxin. B-CLL samples (n=10) were cultured in the presence of 1 ng/ml TPA with or without 0.2 μM Gliotoxin for 24 hours. Nuclear extracts were subjected to EMSA using a oligonucleotide probe spanning a well defined CBF1/NotchIC binding site derived from the CD23a promoter. (B). Corresponding FACS analysis (plus 10 additional B-CLL samples) showing the downregulation of the Notch2 target gene CD23 as well as the induction of apoptosis of Gliotoxin treated B-CLL samples. Columnes represent the percentage of CD19^+CD23^+ (grey bars) and apoptotic cells (black bars: including early apoptotic cells single positive for AnnexinV, and late apoptotic cells double positive for AnnexinV and probidium iodide), respectively.
As drug screening model, a cell culture system was established which conserves the phenotype of freshly isolated B-CLL cells (3×10^6 B-CLL cells/ml RPMI medium+10% FCS, supplemented with 1 ng/ml of TPA). Notch2 activity in the cell nucleus is determined by means of EMSA (electrophoretic mobility shift assay) experiments, and the cell viability (Probidium iodide/annexinV) and CD23 expression (Notch2 target gene) is determined by means of FACS (flow cytometry) analyses, respectively. […]

[2] = system: 518A2 melanoma xenograft; assay: 518A2 melanoma nude mouse xenograft model; format: in vivo
From the text: FIG. 9: Effects of gliotoxin in a 518A2 melanoma nude mouse xenograft model. 518 A2 cells (9×10^6) were inoculated into the lower right and left flank of each mouse. […] The flexible dose and treatment schedule of each group are given in the squares next to each group in the figure. All data are given as mean tumour volumes ±95% CI. The dotted arrows indicate a significant decrease of tumour volume (Wilcoxon matched pairs test, P<0.05) within Group 2 and Group 4 three days after application of 5 mg-0-2.5 mg of gliotoxin. It was shown that even at late administrations with progressed tumours gliotoxin administration is effective group 4 (ip administration at day 25).
Pathogen-free, 4-6 week old, female athymic nude mice (Harlan Winkelmann, Borchen, Germany) were housed under sterile conditions and treated according to the regulations of the local animal welfare committee. Hundred μl of a tumour cell suspension in DPBS containing 9×10^6 518A2 cells were inoculated into the lower right and left flank of each mouse. When mean tumour volume reached approximately 75 mm^3 (based on caliper measurements), mice (n=8/control group, n=6/treatment group) were randomly assigned to treatment groups and received one of the following treatment regimens:
Control (2% DMSO), Group 1 (start dose 1 mg/kg i.p.), Group 2 (start dose 5 mg/kg i.v.), and Group 3 (start dose 5 mg ip) and Group 4 (start dose 7 mg s.c.).
Flexible explorative dosing schedule was used in this in vivo trial: At baseline, all treatment groups received their respective start dose to estimate immediate toxicity of gliotoxin. Beginning with day 4:
Group 1 received 1 mg/kg daily including day 19.
Group 2 received 5 mg i.v. at day 4 and day 7 followed by 5 mg-0-2.5 mg ip at day 11
Group 3 received 5 mg/kg i.p. once weakly including day 18.
Group 4 remained untreated until day 25 and received then 5 mg-0-2.5 mg once only. The trial was stopped when control mice reached a mean tumour volume of 1000 mm^3.
In the xenograft melanoma model, tumour volume of each group is given as mean±95% confidence interval. The anti-tumour effect of gliotoxin was described as tumour volume of treatment group/tumour volume of control group×100 (T/C).

[3] = system: HepG2 (hepatocellular carcinoma); assay: Cell count analysis HepG2; format: cell-based, human; details: HepG2, 200 nM gliotoxin, 72 h
Description: (§1) FIG. 8 a-d: Effects of gliotoxin on cell counts of various human tumour cell lines in vitro. Cell counts of a) hepatocellular carcinoma cell lines HepG2, Huh7, SNU398, Hep3b, HeLa (cervix) and the cholangiocarcinoma cell line NEC as well as b) the pancreatic cancer cell line Panc-1 and the melanoma cell lines d) MelJuso, Meljuso-Bcl-2 (+) and 607B after 72 h treatment with 200 nM gliotoxin; c-d) Cell count dose range experiments with c) pancreatic carcinoma cell lines Panc-1 and MiaPaCa as well as melanoma cell lines MelJuso, 518A2 and 607B using 25, 50 100 and 200 nM gliotoxin for 24 h. All data are given relative to control ±standard deviation.
(§2) Tumour cells were seeded at a density of 10,000 cells/well in 24-well plates. 24 h after seeding, medium containing gliotoxin was added to yield desired concentrations of gliotoxin. At time points indicated, culture medium was removed by suction. Adherent cells were washed with DPBS (Cambrex, Verviers, Belgium) and incubated with trypsin (Gibco) at 37° C. Detached cells were transferred to test tubes containing Cellpack isotonic fluid (Sysmex Europe, Bornbarch, Germany) and counted with a Coulter Z1 electronic cell counter (Beckman Coulter, Bedford, UK).

[4] = system: MiaPaCa (pancreas carcinoma); assay: Cell count analysis MiaPaCa; format: cell-based, human; details: MiaPaCa, 25, 50, 100 and 200 nM, 24 h
Description: as §1, §2

[5] = system: U937 (macrophage cell line); details: cited from earlier work

CN1C(=O)[C@]23CC4=CC=C[C@H](O)[C@H]4N2C(=O)[C@@]1(CO)SS3 [gliotoxin, [3R-(3α,5aβ,6β,10aα)]-2,3,5a,6-tetrahydro-6-hydroxy-3-(hydroxymethyl)-2-methyl-10H-3,10a-epi-dithiopyrazino[1,2-a]indol-1,4-dion]
transcriptional Notch2 activity (EMSA) [1]: dramatic loss | T/C (tumour volume of treatment group/control group×100) ([2]; Group 1, 1 mg/kg i.p. daily until day 19, day 21): 37% | T/C (tumour volume of treatment group/control group×100) ([2]; Group 2, 3×5 mg iv within 7 days then 1×5 mg-0-2.5 mg ip day 11, day 21): 32% | mean tumour volume ([2]; Group 2, day 11 (before application of 5 mg-0-2.5 mg)): 115 mm^3 | mean tumour volume ([2]; Group 2, day 15 (after application of 5 mg-0-2.5 mg at day 11)): 83 mm^3 | T/C (tumour volume of treatment group/control group×100) ([2]; Group 3, 5 mg/kg i.p. weekly until day 18, day 21): 49% | T/C (tumour volume of treatment group/control group×100) ([2]; Group 4, 5 mg-0-2.5 mg once at day 25, day 32): 23% | toxicity after subcutaneous application ([2]; Group 4, 7 mg/kg s.c. start dose, nude mice): severe local toxicity | mean tumour volume ([2]; Group 4, day 25 (before application of 5 mg-0-2.5 mg)): 576 mm^3 | mean tumour volume ([2]; Group 4, day 28 (after application of 5 mg-0-2.5 mg at day 25)): 218 mm^3 | T/C (tumour volume of treatment group/control group×100) ([2]; Group 4, single 7 mg/kg s.c. start dose, then untreated, day 25): 92% | mean reduction of cell numbers compared to vehicle treated controls [3]: 67% | cytotoxicity in dose range experiment (cell count) [4]: clear dose dependent cytotoxicity | IC50 with regard to cell viability [5]: 0.014 µg/mL
